The values that follow are results of earlier work, collected in US20150216993A1 (priority 2012, published 2015).

This series relates to organophosphate poisoning. Conditions: in vivo.

As to `O/N=C/c1cc[n+](COC[n+]2ccc(/C=N/O)cc2)cc1` [obidoxime, obidoxime chloride], the “window of time in which the therapeutic is effective” value is “about 10 minutes”.
